#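 Five concentrations, 48 hours, 96-well plates. GI50: concentration for 50% inhibition of growth.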 The source made the active and inactive calls. Cut-off read from the data, not from the text of the source: active = GI50 up to about 1.1 µM and inactive = higher.
# Columns and labels:
# Experiment in all cases: NCI-60 cell line screen, 48 h
# [1] = tested on: SW-620
# [2] = tested on: SF-539
# [3] = tested on: RXF 393
# [4] = tested on: ACHN
# [5] = tested on: HCT-116
# [6] = tested on: SK-OV-3
# [7] = tested on: DMS-114
# [8] = tested on: SK-MEL-28
# [9] = tested on: CCRF-CEM
# [10] = tested on: KM12
# [11] = tested on: OVCAR-5
# [12] = tested on: UACC-62
# [13] = tested on: NCI-H226
# [14] = tested on: IGROV-1
# [15] = tested on: U-251
# [16] = tested on: MCF7
# [17] = tested on: MDA-MB-231
# [18] = tested on: DU-145
# [19] = tested on: MDA-N
# [20] = tested on: MDA-MB-435
Compound,GI50 [1],GI50 [2],GI50 [3],GI50 [4],GI50 [5],GI50 [6],GI50 [7],GI50 [8],GI50 [9],GI50 [10],GI50 [11],GI50 [12],GI50 [13],GI50 [14],GI50 [15],GI50 [16],GI50 [17],GI50 [18],GI50 [19],GI50 [20]
CC1(C)OB(O)OC1(C)C,> 100 µM (inactive),> 100 µM (inactive),> 100 µM (inactive),> 100 µM (inactive),> 100 µM (inactive),> 100 µM (inactive),> 100 µM (inactive),> 100 µM (inactive),> 100 µM (inactive),> 100 µM (inactive),> 100 µM (inactive),> 100 µM (inactive),> 100 µM (inactive),> 100 µM (inactive),–,–,–,–,–,–
C/C(=C\CC/C=C(\C)CC/C=C(\C)CCC1SC1(C)C)CC/C=C(\C)CCC1OC1(C)C (stereo not given),> 100 µM (inactive),> 100 µM (inactive),89.7 µM (inactive),> 100 µM (inactive),78 µM (inactive),> 100 µM (inactive),65.6 µM (inactive),> 100 µM (inactive),> 100 µM (inactive),> 100 µM (inactive),–,–,> 100 µM (inactive),> 100 µM (inactive),> 100 µM (inactive),–,–,–,–,–
CCOC(=O)CN1C(=O)c2cc([N+](=O)[O-])cc3cc([N+](=O)[O-])cc(c23)C1=O,68.5 µM (inactive),20 µM (inactive),11.9 µM (inactive),40 µM (inactive),15 µM (inactive),> 95.7 µM (inactive),57.7 µM (inactive),49.3 µM (inactive),1.41 µM (inactive),> 100 µM (inactive),> 100 µM (inactive),22.8 µM (inactive),45.4 µM (inactive),> 66.1 µM (inactive),> 88.5 µM (inactive),> 84.7 µM (inactive),45.4 µM (inactive),> 25.3 µM (inactive),11 µM (inactive),13.8 µM (inactive)
C1CCNCC1.S=C(S)N1CCCCC1,0.573 µM (active),80.7 µM (inactive),190 µM (inactive),87.7 µM (inactive),14.1 µM (inactive),92.5 µM (inactive),0.24 µM (active),48.6 µM (inactive),–,2.26 µM (inactive),213 µM (inactive),0.601 µM (active),192 µM (inactive),5.96 µM (inactive),1.46 µM (inactive),26.4 µM (inactive),16.1 µM (inactive),140 µM (inactive),13.1 µM (inactive),199 µM (inactive)
CC(C)C(/C=C/c1ccc(Br)cc1)=N\NC(N)=O,> 100 µM (inactive),> 100 µM (inactive),> 100 µM (inactive),> 100 µM (inactive),> 100 µM (inactive),> 100 µM (inactive),> 100 µM (inactive),> 100 µM (inactive),> 100 µM (inactive),> 100 µM (inactive),> 100 µM (inactive),> 100 µM (inactive),> 100 µM (inactive),> 100 µM (inactive),> 100 µM (inactive),–,–,–,–,–
CC(=O)OC12c3ccccc3C1CCCCCC21OCCCO1 (stereo not given),–,> 100 µM (inactive),> 100 µM (inactive),> 100 µM (inactive),> 100 µM (inactive),> 100 µM (inactive),> 100 µM (inactive),> 100 µM (inactive),> 100 µM (inactive),> 100 µM (inactive),> 100 µM (inactive),> 100 µM (inactive),> 100 µM (inactive),> 100 µM (inactive),> 100 µM (inactive),–,–,–,–,–

# From ChEMBL document CHEMBL1201862, “PubChem BioAssay data set” (2004)
